Key:
Assay in all cases: relative viability (nuclei count vs DMSO), 5 days (fraction); higher = more cells survive
MLN4924 + Vorinostat = compound: NS(=O)(=O)OC[C@@H]1C[C@@H](n2ccc3c(N[C@H]4CCc5ccccc54)ncnc32)C[C@@H]1O [MLN4924] + O=C(CCCCCCC(=O)Nc1ccccc1)NO [Vorinostat] (partner 1 µM)
Method in brief: (§1)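 Relative viability is defined as nuclei in treated wells over nuclei in vehicle wells. Duplicate plates were run and medians reported. Lung cancer cell lines in 1536-well plates were dosed by pin tool one day after seeding, with one drug or with a fixed anchor-drug dose plus five library-drug doses (not always all listed) in √10 steps, and nuclei were counted after 5 days.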

GSK126 + Tozasertib = compound: CC[C@H](C)N1C=C(C2=C(C=C(C=C21)C3=CN=C(C=C3)N4CCNCC4)C(=O)NCC5=C(C=C(NC5=O)C)C)C [GSK126] + Cc1cc(Nc2cc(N3CCN(C)CC3)nc(Sc3ccc(NC(=O)C4CC4)cc3)n2)n[nH]1 [Tozasertib] (partner 0.1 µM)
Method in brief: as §1

Carboplatin + OSI-027 = compound: C1CC(C1)(C(=O)O)C(=O)O.[NH2-].[NH2-].[Pt+2] [Carboplatin] + COc1cccc2cc(-c3nc([C@H]4CC[C@H](C(=O)O)CC4)n4ncnc(N)c34)[nH]c12 [OSI-027] (partner 0.5 µM)
Method in brief: as §1

MLN4924 + Crizotinib = compound: NS(=O)(=O)OC[C@@H]1C[C@@H](n2ccc3c(N[C@H]4CCc5ccccc54)ncnc32)C[C@@H]1O [MLN4924] + C[C@@H](Oc1cc(-c2cnn(C3CCNCC3)c2)cnc1N)c1c(Cl)ccc(F)c1Cl [Crizotinib] (partner 1 µM)
Method in brief: as §1

Cell Line	relative viability (MLN4924 + Vorinostat; first compound 0.04 µM)	relative viability (MLN4924 + Vorinostat; first compound 0.1265 µM)	relative viability (MLN4924 + Vorinostat; first compound 0.4 µM)	relative viability (MLN4924 + Vorinostat; first compound 1.265 µM)	relative viability (MLN4924 + Vorinostat; first compound 4 µM)	relative viability (GSK126 + Tozasertib; first compound 0.08 µM)	relative viability (GSK126 + Tozasertib; first compound 0.253 µM)	relative viability (GSK126 + Tozasertib; first compound 0.8 µM)	relative viability (GSK126 + Tozasertib; first compound 2.53 µM)	relative viability (GSK126 + Tozasertib; first compound 8 µM)	relative viability (Carboplatin + OSI-027; first compound 0.08 µM)	relative viability (Carboplatin + OSI-027; first compound 0.253 µM)	relative viability (Carboplatin + OSI-027; first compound 0.8 µM)	relative viability (Carboplatin + OSI-027; first compound 2.53 µM)	relative viability (Carboplatin + OSI-027; first compound 8 µM)	relative viability (MLN4924 + Crizotinib; first compound 0.04 µM)	relative viability (MLN4924 + Crizotinib; first compound 0.1265 µM)	relative viability (MLN4924 + Crizotinib; first compound 0.4 µM)	relative viability (MLN4924 + Crizotinib; first compound 1.265 µM)	relative viability (MLN4924 + Crizotinib; first compound 4 µM)
HCC-78	0.442	0.309	0.5	0.245	0.225	0.527	0.54	0.401	0.386	0.405	0.433	0.368	0.341	0.379	0.375	0.394	0.451	0.739	0.159	0.172
LU99A	0.514	0.381	0.3	0.119	0.106	0.259	0.268	0.26	0.198	0.21	0.307	0.299	0.269	0.3	0.283	0.555	0.359	0.351	0.16	0.151
NCI-H520	0.499	0.499	0.321	0.177	0.223	0.594	0.426	0.48	0.443	0.352	0.245	0.237	0.317	0.289	0.253	0.431	0.491	0.338	0.168	0.151
NCI-H661	0.601	0.619	0.389	0.317	0.382	0.355	0.336	0.344	0.343	0.332	0.758	0.824	0.66	0.578	0.478	0.735	0.721	0.602	0.462	0.396

— the supplement of paper PMC10307832
